Experimental data taken from PubChem BioAssay AID248 (DTP/NCI, 2004).
Several values for one entry are separate records, joined by “and”; a condition that tells them apart may be missing. Equal values may be shown once. Toxic doses and inconclusive results are not listed. Rule as the data show it: active = T/C of 150% or more; inactive = T/C below 125%.

Test system: L1210 leukemia ip in BDF1 mice, survival T/C
Assay: NCI In Vivo Anticancer Drug Screen. Data for tumor model L1210 Leukemia (intraperitoneal) in B6D2F1 (BDF1) mice
Settings: endpoint: mean survival time, higher = longer survival
Method in brief: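 Ratio derived from survival: compound-dosed mice over vehicle-dosed mice, all bearing a transplantable tumor.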

[1] = dose: 100.0 mg/kg/injection, schedule: Q01DX009 (ip), vehicle: Klucel (hydroxypropylcellulose) (HPC)
[2] = dose: 100.0 mg/kg/injection, schedule: Q04DX003 (ip), vehicle: Klucel (hydroxypropylcellulose) (HPC)
[3] = dose: 200.0 mg/kg/injection, schedule: Q01DX009 (ip), vehicle: Klucel (hydroxypropylcellulose) (HPC)
[4] = dose: 200.0 mg/kg/injection, schedule: Q04DX003 (ip), vehicle: Klucel (hydroxypropylcellulose) (HPC)
[5] = dose: 400.0 mg/kg/injection, schedule: Q01DX009 (ip), vehicle: Klucel (hydroxypropylcellulose) (HPC)
[6] = dose: 400.0 mg/kg/injection, schedule: Q04DX003 (ip), vehicle: Klucel (hydroxypropylcellulose) (HPC)
[7] = dose: 100.0 mg/kg/injection, schedule: Q01DX009 (ip), vehicle: saline with Tween-80
[8] = dose: 100.0 mg/kg/injection, schedule: Q04DX003 (ip), vehicle: saline with Tween-80
[9] = dose: 200.0 mg/kg/injection, schedule: Q01DX009 (ip), vehicle: saline with Tween-80
[10] = dose: 200.0 mg/kg/injection, schedule: Q04DX003 (ip), vehicle: saline with Tween-80
[11] = dose: 400.0 mg/kg/injection, schedule: Q04DX003 (ip), vehicle: saline with Tween-80
[12] = dose: 100.0 mg/kg/injection, schedule: Q01DX001 (ip), vehicle: saline
[13] = dose: 200.0 mg/kg/injection, schedule: Q01DX001 (ip), vehicle: saline
[14] = dose: 100.0 mg/kg/injection, schedule: Q01DX001 (ip), vehicle: carboxymethylcellulose (CMC)
[15] = dose: 200.0 mg/kg/injection, schedule: Q01DX001 (ip), vehicle: carboxymethylcellulose (CMC)
[16] = dose: 6.25 mg/kg/injection, schedule: Q01DX009 (ip), vehicle: saline
[17] = dose: 12.5 mg/kg/injection, schedule: Q01DX009 (ip), vehicle: saline
[18] = dose: 25.0 mg/kg/injection, schedule: Q01DX009 (ip), vehicle: saline
[19] = dose: 25.0 mg/kg/injection, schedule: Q04DX003 (ip), vehicle: saline
[20] = dose: 50.0 mg/kg/injection, schedule: Q01DX009 (ip), vehicle: saline
[21] = dose: 50.0 mg/kg/injection, schedule: Q04DX003 (ip), vehicle: saline

Measured: T/C

COc1ccc(OC(=O)Nc2ccccc2OC)cc1
inactive: [1] 97 % of control | [2] 98 % of control | [3] 100 % of control | [4] 96 % of control | [5] 95 % of control | [6] 95 % of control

O=C(O)CSC(SCC(=O)O)c1ccccc1
inactive: dose: 50.0 mg/kg/injection, schedule: Q04DX003 (ip), vehicle: Klucel (hydroxypropylcellulose) (HPC) 108 % of control | [2] 107 % of control | [4] 100 % of control | [6] 110 % of control

COC1(c2ccc([N+](=O)[O-])o2)OC1(C)C (stereo not drawn)
inactive: [7] 98 % of control | [8] 113 % of control | [9] 95 % of control | [10] 109 % of control | [11] 96 % of control

Nc1nc(N)nc(-c2ccc(-n3nnc4ccccc4c3=O)cc2)n1
inactive: [1] 90 % of control | [2] 96 % of control | [3] 93 % of control | [4] 96 % of control | [5] 90 % of control | [6] 91 % of control

O=C(N1CCN=C1C(Cl)(Cl)Cl)C(Cl)(Cl)Cl
inactive: [8] 100 % of control | [10] 102 % of control | [11] 102 % of control

NN1CC(=O)NC1=O
inactive: dose: 100.0 mg/kg/injection, schedule: Q04DX003 (ip), vehicle: saline 100 % of control | dose: 200.0 mg/kg/injection, schedule: Q04DX003 (ip), vehicle: saline 102 % of control | dose: 400.0 mg/kg/injection, schedule: Q04DX003 (ip), vehicle: saline 100 % of control

O=C1NS(=O)(=O)CS(=O)(=O)N1
inactive: [12] 108 % of control | [13] 104 % of control | dose: 400.0 mg/kg/injection, schedule: Q01DX001 (ip), vehicle: saline 101 % of control

CCCCCCCCCC(=O)N(C(C)C)C(C)C
inactive: [14] 100 % of control | dose: 100.0 mg/kg/injection, schedule: Q01DX009 (ip), vehicle: carboxymethylcellulose (CMC) 96 % of control and 106 % of control | dose: 100.0 mg/kg/injection, schedule: Q04DX003 (ip), vehicle: carboxymethylcellulose (CMC) 93 % of control | [15] 94 % of control | dose: 200.0 mg/kg/injection, schedule: Q01DX009 (ip), vehicle: carboxymethylcellulose (CMC) 94 % of control and 100 % of control | dose: 200.0 mg/kg/injection, schedule: Q04DX003 (ip), vehicle: carboxymethylcellulose (CMC) 95 % of control | dose: 400.0 mg/kg/injection, schedule: Q01DX001 (ip), vehicle: carboxymethylcellulose (CMC) 96 % of control | dose: 400.0 mg/kg/injection, schedule: Q01DX009 (ip), vehicle: carboxymethylcellulose (CMC) 95 % of control | dose: 400.0 mg/kg/injection, schedule: Q04DX003 (ip), vehicle: carboxymethylcellulose (CMC) 92 % of control

O=C(NCCCc1ccc(S(=O)(=O)F)cc1)Oc1ccc([N+](=O)[O-])cc1
inactive: dose: 25.0 mg/kg/injection, schedule: Q01DX009 (ip), vehicle: saline with Tween-80 102 % of control | dose: 50.0 mg/kg/injection, schedule: Q01DX009 (ip), vehicle: saline with Tween-80 100 % of control | [7] 93 % of control and 86 % of control

Cc1cccc(C)c1NC(=O)Oc1ccc(Cl)cc1Cc1ccccc1
inactive: [1] 88 % of control | [3] 88 % of control | [5] 102 % of control

CC(C)(C)NN
inactive: dose: 5.0 mg/kg/injection, schedule: Q01DX001 (ip), vehicle: saline 102 % of control | dose: 10.0 mg/kg/injection, schedule: Q01DX001 (ip), vehicle: saline 104 % of control | dose: 20.0 mg/kg/injection, schedule: Q01DX001 (ip), vehicle: saline 98 % of control | dose: 40.0 mg/kg/injection, schedule: Q01DX001 (ip), vehicle: saline 94 % of control | dose: 80.0 mg/kg/injection, schedule: Q01DX001 (ip), vehicle: saline 96 % of control | [12] 101 % of control

COc1cc(/C=C/C=C/C(=O)N2CCCCC2)ccc1O
inactive: [7] 88 % of control | [9] 92 % of control

COC(=O)CSC(=O)C(O)c1ccccc1 (stereo not drawn)
inactive: [2] 96 % of control | [4] 103 % of control | [6] 103 % of control

Cc1nc(N)[nH]c(=O)c1CCCN(c1ccccc1)S(=O)(=O)c1ccc([N+](=O)[O-])cc1
inactive: dose: 6.25 mg/kg/injection, schedule: Q01DX001 (ip), vehicle: saline with Tween-80 104 % of control | dose: 12.5 mg/kg/injection, schedule: Q01DX001 (ip), vehicle: saline with Tween-80 100 % of control | dose: 25.0 mg/kg/injection, schedule: Q01DX001 (ip), vehicle: saline with Tween-80 98 % of control

CCN(CC)CCCOC(=O)/C=C/c1c(C)[nH]c(=O)[nH]c1=O
inactive: [16] 106 % of control | [17] 97 % of control | dose: 12.5 mg/kg/injection, schedule: Q04DX003 (ip), vehicle: saline 102 % of control | [18] 96 % of control | [19] 103 % of control | [20] 103 % of control | [21] 116 % of control

O=C(NC(=S)Nc1cccc(Cl)c1)c1cccc([N+](=O)[O-])c1
inactive: [1] 103 % of control | [2] 105 % of control | [3] 100 % of control | [4] 97 % of control | [5] 100 % of control | [6] 95 % of control

c1ccc(Cc2[nH]c3ccccc3c2-c2ccccc2)cc1
inactive: [7] 93 % of control | dose: 100.0 mg/kg/injection, schedule: Q04DX002 (ip), vehicle: saline with Tween-80 109 % of control | [9] 87 % of control | dose: 200.0 mg/kg/injection, schedule: Q04DX002 (ip), vehicle: saline with Tween-80 100 % of control | dose: 400.0 mg/kg/injection, schedule: Q04DX002 (ip), vehicle: saline with Tween-80 90 % of control

N#CC(Cc1ccccc1)C(=O)O (stereo not drawn)
inactive: dose: 50.0 mg/kg/injection, schedule: Q01DX Z (ip), vehicle: saline 106 % of control | dose: 100.0 mg/kg/injection, schedule: Q01DX Z (ip), vehicle: saline 102 % of control | dose: 200.0 mg/kg/injection, schedule: Q01DX Z (ip), vehicle: saline 91 % of control

CN1CCC(CO)CC1
inactive: [12] 94 % of control | [13] 100 % of control

CC(CN1c2ccccc2Sc2cccnc21)N(C)C (stereo not drawn)
inactive: dose: 3.12 mg/kg/injection, schedule: Q01DX009 (ip), vehicle: saline 97 % of control | [16] 97 % of control | [17] 101 % of control | [18] 103 % of control | [19] 108 % of control | [20] 111 % of control | [21] 102 % of control

CC(=O)Nc1ccc(I)cc1C(=O)O
inactive: dose: 50.0 mg/kg/injection, schedule: Q01DX001 (ip), vehicle: carboxymethylcellulose (CMC) 96 % of control | [14] 91 % of control | [15] 91 % of control

COc1cc(C(N)=O)cc(OC)c1OC
inactive: dose: 100.0 mg/kg/injection, schedule: Q01DX001 (ip), vehicle: saline with Tween-80 96 % of control | dose: 200.0 mg/kg/injection, schedule: Q01DX001 (ip), vehicle: saline with Tween-80 98 % of control | dose: 400.0 mg/kg/injection, schedule: Q01DX001 (ip), vehicle: saline with Tween-80 98 % of control

O=C1c2cc([N+](=O)[O-])ccc2-c2c1cccc2[N+](=O)[O-]
inactive: dose: 18.75 mg/kg/injection, schedule: Q01DX001 (ip), vehicle: Klucel (hydroxypropylcellulose) (HPC) 96 % of control | dose: 37.5 mg/kg/injection, schedule: Q01DX001 (ip), vehicle: Klucel (hydroxypropylcellulose) (HPC) 91 % of control | dose: 75.0 mg/kg/injection, schedule: Q01DX001 (ip), vehicle: Klucel (hydroxypropylcellulose) (HPC) 96 % of control | dose: 150.0 mg/kg/injection, schedule: Q01DX001 (ip), vehicle: Klucel (hydroxypropylcellulose) (HPC) 98 % of control | dose: 300.0 mg/kg/injection, schedule: Q01DX001 (ip), vehicle: Klucel (hydroxypropylcellulose) (HPC) 87 % of control

Cc1[nH]c2ccc(N(C)C)cc2c(=O)c1Cc1c(C)[nH]c2ccc(N(C)C)cc2c1=O
inactive: [7] 94 % of control | [9] 95 % of control | dose: 400.0 mg/kg/injection, schedule: Q01DX009 (ip), vehicle: saline with Tween-80 92 % of control
